For 33 compounds, IC50 results are on record in patent publication US20050239751A1, “Heterocyclic anti-viral compounds comprising metabolizable moieties and their uses” (Rigel Pharmaceuticals, Inc., priority 2004, published 2005).

The assay has as its system HCV replicon in 5-2 Luc replicon-comprising cells. Description: HCV replicon assay (luciferase; HEPC_REPLICON-LUC). The assay is classed as cell-based, Hepatitis C virus. As to conditions: read-out: Replicon (IC50). An excerpt: In one embodiment, the inhibitory activity of the metabolically active agent of the prodrug can be confirmed in a replicon assay that assesses the ability of a test compound to block or inhibit HCV replication in replicon cells. One example of a suitable replicon assay is the liver cell-line Huh 7-based replicon assay described in Lohmann et al., 1999, Science 285:110-113. A specific example of this replicon assay which utilizes luciferase translation is provided in the Examples Section. In one embodiment of this assay, the amount of test prodrug that yields a 50% reduction in translation as compared to a control cell (IC50) may be determined.
The inhibitory activity of certain prodrugs of the invention, which may inhibit HCV translation or replication prior to metablism and/or are metabolized into active agents, was confirmed using an HCV replicon assay. The HCV replicon can include such features as the HCV 5′ untranslated region including the HCV IRES, the HCV 3′ untranslated region, selected HCV genes encoding HCV polypeptides, selectable markers, and a reporter gene such as luciferase, GFP, etc. In the assay, actively dividing 5-2 Luc replicon-comprising cells (obtained from Ralf Bartenschlager; see Lohmann et al., 1999, Science 285:110-113) were seeded at a density of between about 5,000 and 7,500 cells/well onto 96 well plates (about 90 µl of cells per well) and incubated at 37° C. and 5% CO2 for 24 hours. Then, the test prodrug (in a volume of about 10 PI) was added to the wells at various concentrations and the cells were incubated for an additional 24-48 hours before luciferase assay. The media was aspirated from each well and Bright-Glo (Promega, Madison, WI) luciferase assay reagents were added to each well according to the manufacturer's instructions. Briefly, the BrightGlo reagent was diluted 1:1 with PBS and 100 µl of diluted reagent was added to each well. After 5 min of incubation at room temperature, luciferin emission was quantified with a luminometer. In this assay, the amount of test prodrug that yielded a 50% reduction in luciferase emission (IC50) was determined. This IC50 value may represent the antiviral activity of the prodrug itself, the activity of prodrug transformed into its active metabolized form, or a combination of the two.
In TABLES 3 through 12, a value of “+” indicates an IC50 of 10 μM or less in the specified assay; a value of “−” indicates an IC50 of greater than 10 μM in the specified assay.

Setting [1] is: Tables 3-12, 50% reduction in luciferase emission, 5-2 Luc replicon cells.
Where [2] appears, read: Hepatitis C virus, Tables 3-12, 50% reduction in luciferase emission, 5-2 Luc replicon cells.

pIC50: −log10 of the molar value. Read-outs that look alike come from different tables or passages of the source.

Regarding “2,2-dichloro-2-(diethoxyphosphonyl)-N-[3-[3-(2,6-dichlorophenyl)-5-isoxazoyl]phenyl] acetamide [compound 405]”, the pIC50 under setting [1] was ≥ 5.00. With “2,2-dichloro-2-(dihydroxyphosphonyl)-N-[3-[3-(2,6-dichlorophenyl)-5-isoxazoyl]phenyl] acetamide [Cpd. 407]”, the pIC50 under setting [1] is < 5.00. Same read-out and setting: the result for “2,2-dichloro-N-[3′-[3′-(2′-chloro-6′-tbutoxycarbonylphenyl)-5′-isoxazoyl]phenyl]-N-[(5-isopropyl-1,3-dioxolene-2-one4-yl)methylene] acetamide [Cpd. 36]” reads ≥ 5.00.

In the case of “2′,2′-Dichloro-N-[3-[3-(2,6-dichlorophenyl)-5-isoxazolyl]-4-(pyridyl)]-N-[2-(4-fluorobenzoyl)ethyl] Acetamide [126a]”, the pIC50 (Table 15) is ≥ 5.00. Consider “2′,2′-Dichloro-N-[3-[3-(2,6-dichlorophenyl)-5-isoxazolyl]phenyl]-N-[2-(4-fluorobenzoyl)ethyl] Acetamide [100a]”, for which, under “Table 15”, the pIC50 was ≥ 5.00. For the compound “2′,2′-Dichloro-N-[3-[3-(2,6-dichlorophenyl)-5-isoxazolyl]phenyl]-N-[2-(4-methoxybenzoyl)ethyl] Acetamide [Cpd. 103a]”, the pIC50 (Table 15) is ≥ 5.00. On to “2′,2′-Dichloro-N-[3-[3-(2,6-dichlorophenyl)-5-isoxazolyl]phenyl]-N-[2-(benzoyl)ethyl] Acetamide [Cpd. 102a]”, for which the pIC50 (Table 15) is ≥ 5.00. Regarding “2′,2′-Dichloro-N-[3-[3-(2-chloro-6-hydroxycarbonylphenyl)-5-isoxazolyl]phenyl]-N-[2-(4-fluorobenzoyl)ethyl] Acetamide [Cpd. 129a]”, the negative-log IC50 (pIC50) (Table 15) is ≥ 5.00. Consider “2′,2′-Dichloro-N-[3-[3-(2-chloro-6-methoxycarbonylphenyl)-5-isoxazolyl]phenyl]-N-[2-(4-fluorobenzoyl)ethyl] Acetamide [Cpd. 133a]”, for which the negative logarithm of the IC50 (pIC50) (Table 15) was ≥ 5.00. For “2′,2′-Dichloro-N-[3-[3-(2-chloro-6-methoxyphenyl)-5-isoxazolyl]phenyl]-N-[2-(4-fluorobenzoyl)ethyl] Acetamide [Cpd. 113a]”, the pIC50 (Table 15) is ≥ 5.00. For “2′,2′-Dichloro-N-[3-[3-(2-chloro-6-tbutoxycarbonylphenyl)-5-isoxazolyl]phenyl]N-[2-(4-fluorobenzoyl)ethyl] Acetamide [Cpd. 128a]”, the pIC50 (Table 15) is ≥ 5.00. For “2′,2′-Dichloro-N-[3-[3-(2-cyclopropyl-6-trifluoromethylphenyl)-5-isoxazolyl]phenyl]N-[2-(4-fluorobenzoyl)ethyl] Acetamide [Cpd. 114a]”, the negative-log IC50 (pIC50) (Table 15) was ≥ 5.00. With “2′,2′-Dichloro-N-[3-[3-[2-chloro-6-(N′-acetyl-4piperdinyloxy)phenyl]-5-isoxazolyl]phenyl]-N-[2-(4-fluorobenzoyl)ethyl] Acetamide [Cpd. 127a]”, the pIC50 (Table 15) is ≥ 5.00.

For “2′,2′-dichloro-2′-(benzyloxycarbonyl)-N-[3-[3-(2,6-dichlorophenyl)-5-isoxazoyl]phenyl] acetamide [Cpd. 17]”, under setting [1], the negative logarithm of the IC50 (pIC50) was ≥ 5.00. Consider “2′,2′-dichloro-2′-(diethoxyphosphonyl)-N-[3-[3-(2-fluoro-6-trifluoromethylphenyl)-5-isoxazoyl]phenyl] acetamide [Cpd. 6]”, for which the negative logarithm of the IC50 (pIC50) under setting [1] was ≥ 5.00.

With “2′,2′-dichloro-2′-(diisopropoxyphosphonyl)-N-[3-[3-(2,6-dichlorophenyl)-5-isoxazoyl]phenyl] acetamide [Cpd. 4]”, the pIC50 under setting [1] is ≥ 5.00. With “2′,2′-dichloro-2′-[(1R, 2S, 5Rkmenthyloxycarbonyl]-N-[3-[3-(2,6-dichlorophenyl)-5-isoxazoyl]phenyl] acetamide [Cpd. 11]”, the pIC50 under setting [1] was ≥ 5.00. As for “2′-(diethoxyphosphonyl)-2′,2′-difluoro-N-[3-[3-(2,6-dichlorophenyl)-5-isoxazoyl]phenyl] acetamide [Cpd. 3]”, the pIC50 under setting [1] was < 5.00. Consider “2′-chloro-2′-(diethoxyphosphonyl)-2-fluoro-N-[3-[3-(2,6-dichlorophenyl)-5-isoxazoyl]phenyl] acetamide [Cpd. 2]”, for which the negative-log IC50 (pIC50) under setting [1] is < 5.00. The same measure, in the same setting: the result for “2′-chloro-2′-(diethoxyphosphonyl)-N-[3-[3-(2,6-dichlorophenyl)-5-isoxazoyl]phenyl] acetamide [Cpd. 1]” reads < 5.00. `O=C(CCCN(C(=O)C(Cl)Cl)c1cccc(-c2cc(-c3c(Cl)cccc3Cl)no2)c1)c1ccccc1` [107a]: the pIC50 (Table 15) is ≥ 5.00.

Take `CCOP(=O)(OCC)C(Cl)(Cl)C(=O)Nc1cccc(-c2cc(-c3ccccc3C(F)(F)F)no2)c1` [Cpd. 5]: under setting [1], the pIC50 was ≥ 5.00. Regarding `CCOC(=O)[C@H](C)OC(=O)C(Cl)(Cl)C(=O)Nc1cccc(-c2cc(-c3c(Cl)cccc3Cl)no2)c1` [Cpd. 8, 2′,2′-dichloro-2′-(1S-ethoxycarbonyl-1-methylmethyleneoxycarbonyl)-N-[3-[3-(2,6-dichlorophenyl)-5-isoxazoyl]phenyl] acetamide], the negative logarithm of the IC50 (pIC50) under setting [2] was ≥ 5.00. As to `CC1(C)C2CCC1(C)C(OC(=O)C(Cl)(Cl)C(=O)Nc1cccc(-c3cc(-c4c(Cl)cccc4Cl)no3)c1)C2` [Cpd. 9, 2′,2′-dichloro-2′-[(1S)-endo-borneyloxycarbonyl]-N-[3-[3-(2,6-dichlorophenyl)-5-isoxazoyl]phenyl] acetamide], the pIC50 under setting [2] was ≥ 5.00.

Regarding `CC(=O)C(Cl)(Cl)C(=O)Nc1cccc(-c2cc(-c3c(Cl)cccc3Cl)no2)c1` [Cpd. 10], the pIC50 under setting [2] is < 5.00.

In the case of `CCC(C)OC(=O)C(Cl)(Cl)C(=O)Nc1cccc(-c2cc(-c3c(Cl)cccc3Cl)no2)c1` (stereo not drawn) [Cpd. 12, 2′,2′-dichloro-2′-(sec-butoxycarbonyl)-N-[3-[3-(2,6-dichlorophenyl)-5-isoxazoyl]phenyl] acetamide], the pIC50 under setting [2] was ≥ 5.00. With `O=C(Nc1cccc(-c2cc(-c3c(Cl)cccc3Cl)no2)c1)C(Cl)(Cl)C(=O)OC1CCCCC1` [Cpd. 13, 2′,2′-dichloro-2′-(cyclohexyloxycarbony)-N-[3-[3-(2,6-dichlorophenyl)-5-isoxazoyl]phenyl] acetamide], under setting [2], the pIC50 was ≥ 5.00. `CC(C)(C)COC(=O)C(Cl)(Cl)C(=O)Nc1cccc(-c2cc(-c3c(Cl)cccc3Cl)no2)c1` [Cpd. 14]: under setting [2], the pIC50 is ≥ 5.00. For the compound `CC(C)(C)OC(=O)C(Cl)(Cl)C(=O)Nc1cccc(-c2cc(-c3c(Cl)cccc3Cl)no2)c1` [Cpd. 15], the pIC50 under setting [2] is ≥ 5.00. As to `CC(C)OC(=O)C(Cl)(Cl)C(=O)Nc1cccc(-c2cc(-c3c(Cl)cccc3Cl)no2)c1` [Cpd. 16, 2′,2′-dichloro-2′-(isopropoxycarbonyl)-N-[3-[3-(2,6-dichlorophenyl)-5-isoxazoyl]phenyl] acetamide], the pIC50 under setting [2] was ≥ 5.00. With `COC(=O)C(Cl)(Cl)C(=O)Nc1cccc(-c2cc(-c3c(Cl)cccc3Cl)no2)c1` [Cpd. 18], the negative logarithm of the IC50 (pIC50) under setting [2] is ≥ 5.00. As for `COC(=O)C(Cl)(Cl)C(=O)Nc1cccc(-c2cc(-c3c(C4CC4)cccc3C(F)(F)F)no2)c1` [Cpd. 26, 2′,2′-dichloro-2′-(methoxycarbonyl)-N-[3-[3-(2-cyclopropyl-6-trifluoromethylphenyl]5-isoxazoyl]phenyl] acetamide], the pIC50 under setting [2] is ≥ 5.00. Same read-out and setting: next, `COC(=O)C(Cl)(Cl)C(=O)Nc1cccc(-c2cc(-c3c(Cl)cccc3OC)no2)c1` [Cpd. 27, 2′,2′-dichloro-2′-(methoxycarbonyl)-N-[3-[3-(2-chloro-6-methoxyphenyl]5-isoxazoyl]phenyl] acetamide]: ≥ 5.00.
